Reference: patent US20110190365A1, “Insecticidal 4-phenyl-1H-pyrazoles” (Bayer Crop Science AG, priority 2008, published 2011)

Test: log P by HPLC on a reversed-phase column (C18), EEC Directive 79/831 Annex V.A8
Type: physicochemical
Settings: HCOOH
Experimental: The stated log P values were determined in accordance with EEC Directive 79/831 Annex V.A8 by HPLC (High Performance Liquid Chromatography) using a reversed-phase column (C18).

Compound	log P (HCOOH)
CC(NC(=O)c1ccc(-n2nc(C(F)(F)F)c(-c3cc(Cl)cc(C(F)(F)F)c3)c2N)cc1)C(F)(F)F (centres unmarked) [I-A-Q2-095]	I-A-Q2-095: log P (HCOOH): 4.51
Cc1cc(-n2nc(C(F)(F)F)c(-c3ccc(I)cc3)c2N)ccc1C(=O)NCC(F)(F)C(F)F [I-A-Q2-313]	I-A-Q2-313: log P (HCOOH): 3.85
Nc1c(-c2ccc(Cl)c(Cl)c2)c(C(F)(F)F)nn1-c1ccc(C(=O)NCC(F)(F)F)cc1 [I-A-Q2-156]	I-A-Q2-156: log P (HCOOH): 3.89
Cc1cc(-n2nc(C(F)(F)F)c(-c3cc(Cl)cc(Cl)c3)c2N)ccc1C(=O)NCC(C)C [I-A-Q2-227]	I-A-Q2-227: log P (HCOOH): 4.40
CNC(=O)c1ccc(-n2nc(C(F)(F)F)c(-c3ccc(Cl)cc3)c2N)cc1 [I-A-Q2-195]	I-A-Q2-195: log P (HCOOH): 2.96
Cc1cc(-n2nc(C)c(-c3ccc(F)cc3)c2N)ccc1C(=O)NCc1ccccn1 [I-A-Q2-367]	I-A-Q2-367: log P (HCOOH): 1.59
Cc1cc(-n2nc(C(F)(F)F)cc2N)ccc1C(=O)O [XI-A-084]	XI-A-084: log P (HCOOH): 3.53
Nc1c(-c2ccc(Cl)cc2)c(C(F)(F)F)nn1-c1ccc(C(=O)NC2CC2)cc1 [I-A-Q2-163]	I-A-Q2-163: log P (HCOOH): 3.13
Cc1cc(-n2nc(C(F)(F)F)c(-c3cc(Cl)cc(Cl)c3)c2N)ccc1C(=O)NC(C)Cn1cccn1 (centres unmarked) [I-A-Q2-243]	I-A-Q2-243: log P (HCOOH): 3.78
Cc1cc(-n2nc(C)c(-c3cc(F)ccc3F)c2N)ccc1C(=O)NCC(F)(F)C(F)F [I-A-Q2-332]	I-A-Q2-332: log P (HCOOH): 2.59
Cc1cc(-n2nc(C(F)(F)F)c(-c3cc(Cl)cc(Cl)c3)c2N)ccc1C(=O)NCc1ccc(F)cn1 [I-A-Q2-039]	I-A-Q2-039: log P (HCOOH): 3.94
Cc1cc(-n2nc(C(F)(F)c3ccc(C(F)(F)F)cc3)c(-c3cc(Cl)cc(C(F)(F)F)c3)c2N)ccc1C(=O)NCC(F)(F)C(F)F [I-A-Q2-289]	I-A-Q2-289: log P (HCOOH): 4.95
Cc1cc(-n2nc(C(F)(F)C(F)(F)F)c(-c3ccc(Cl)cc3)c2N)ccc1C(=O)NCc1ccccn1 [I-A-Q2-363]	I-A-Q2-363: log P (HCOOH): 3.19
Cc1cc(-n2nc(C(F)(F)F)c(-c3cc(Cl)cc(Cl)c3)c2N)ccc1C(=O)NC(C)c1ccc(Cl)nc1 (centres unmarked) [I-A-Q2-248]	I-A-Q2-248: log P (HCOOH): 4.34
CNC(=O)c1ccc(-n2nc(C(F)(F)F)c(-c3cc(Cl)cc(Cl)c3)c2N)cc1C [I-A-Q2-013]	I-A-Q2-013: log P (HCOOH): 3.59
C=CCNC(=O)c1ccc(-n2nc(C(F)(F)F)c(-c3cc(Cl)cc(Cl)c3)c2N)cc1 [I-A-Q2-144]	I-A-Q2-144: log P (HCOOH): 3.93

Compound	log P (HCOOH)
Nc1c(-c2cc(Cl)cc(Cl)c2)c(C(F)(F)F)nn1-c1ccc(C(=O)NCc2ccccn2)c(C(F)(F)F)c1 [I-A-Q2-386]	I-A-Q2-386: log P (HCOOH): 3.77
Cc1cc(-n2nc(C(F)(F)F)c(-c3cc(C(F)(F)F)cc(C(F)(F)F)c3)c2N)ccc1C(=O)NCc1ccccn1 [I-A-Q2-360]	I-A-Q2-360: log P (HCOOH): 3.47
C#CCNC(=O)c1ccc(-n2nc(C(F)(F)F)c(-c3cc(Cl)cc(Cl)c3)c2N)cc1C [I-A-Q2-238]	I-A-Q2-238: log P (HCOOH): 3.78
Cc1cc(-n2nc(C(F)(F)F)c(-c3cc(Cl)cc(Cl)c3)c2N)ccc1C(=O)NCc1cccc(Br)n1 [I-A-Q2-253]	I-A-Q2-253: log P (HCOOH): 4.40
CC(C)NC(=O)c1ccc(-n2nc(C(F)(F)F)c(-c3ccc(Cl)c(Cl)c3)c2N)cc1 [I-A-Q2-154]	I-A-Q2-154: log P (HCOOH): 3.75
CC(C)NC(=O)c1ccc(-n2nc(C(F)(F)F)c(-c3cc(Cl)cc(Cl)c3)c2N)cc1 [I-A-Q2-135]	I-A-Q2-135: log P (HCOOH): 4.06
Cc1cc(-n2nc(C(F)(F)F)c(-c3cc(Cl)cc(Cl)c3)c2N)ccc1C(=O)NC(c1ccc(N(C)C)cc1)C(F)(F)F (centres unmarked) [I-A-Q2-246]	I-A-Q2-246: log P (HCOOH): 5.02
Nc1c(-c2ccc(F)c(F)c2)c(C(F)(F)F)nn1-c1ccc(C(=O)NCc2ccccn2)cc1 [I-A-Q2-177]	I-A-Q2-177: log P (HCOOH): 2.27
Cc1cc(-n2nc(C(F)(F)F)c(-c3cc(Cl)cc(Cl)c3)c2N)ccc1C(=O)NCc1cc(-c2ccccc2)ccn1 [I-A-Q2-206]	I-A-Q2-206: log P (HCOOH): 4.29
Cc1cc(C)cc(-c2c(C(F)(F)F)nn(-c3ccc(C(=O)NCc4ccccn4)cc3)c2N)c1 [I-A-Q2-180]	I-A-Q2-180: log P (HCOOH): 2.61
Cc1cc(-n2nc(C(F)(F)F)c(-c3cc(Cl)cc(Cl)c3)c2N)ccc1C(=O)NCc1ccccc1 [I-A-Q2-271]	I-A-Q2-271: log P (HCOOH): 4.45
COc1cnc(CNC(=O)c2ccc(-n3nc(C(F)(F)F)c(-c4cc(Cl)cc(Cl)c4)c3N)cc2C)cc1OC [I-A-Q2-037]	I-A-Q2-037: log P (HCOOH): 2.42
CC(NC(=O)c1ccc(-n2nc(C(F)(F)F)c(-c3cccc(Cl)c3)c2N)cc1)c1ccccn1 (centres unmarked) [I-A-Q2-087]	I-A-Q2-087: log P (HCOOH): 2.80
CC(NC(=O)c1ccc(-n2nc(C(F)(F)F)c(-c3cc(Cl)cc(Cl)c3)c2N)cc1)c1ccccn1 (centres unmarked) [I-A-Q2-147]	I-A-Q2-147: log P (HCOOH): 3.47
CSCC(C)NC(=O)c1ccc(-n2nc(C(F)(F)F)c(-c3cc(Cl)cc(Cl)c3)c2N)cc1C (centres unmarked) [I-A-Q2-279]	I-A-Q2-279: log P (HCOOH): 4.43
Nc1c(-c2ccc(Br)cc2)c(C(F)(F)F)nn1-c1ccc(C(=O)NC2CC2)cc1 [I-A-Q2-190]	I-A-Q2-190: log P (HCOOH): 3.15

Same assay, conditions: HCOOH; Table 4, compounds of formula I-A-Q4

Compound	log P (HCOOH)
CCOC(=O)c1ccc(-n2nc(C(F)(F)F)c(-c3ccc(Cl)cc3Cl)c2N)cc1 [I-A-Q4-085]	I-A-Q4-085: log P (HCOOH): 4.57
Nc1c(-c2ccc(Br)cc2)c(C(F)(F)F)nn1-c1ccc(C(=O)O)cc1 [I-A-Q4-098]	I-A-Q4-098: log P (HCOOH): 3.35
Cc1nn(-c2ccc(Cl)cn2)c(N)c1-c1ccccc1Cl [I-A-Q4-032]	I-A-Q4-032: log P (HCOOH): 3.89

Same assay, conditions: HCOOH; Table 6, compounds of formula I-B-Q2

Compound	log P (HCOOH)
CC(NC(=O)c1ccc(-n2cc(-c3cc(Cl)cc(Cl)c3)c(C(F)(F)F)n2)c2ccccc12)C(F)(F)F (centres unmarked) [I-B-Q2-001]	I-B-Q2-001: log P (HCOOH): 4.74

Same assay, conditions: HPLC, reversed-phase C18, mobile phase with formic acid

Compound	log P (HCOOH)
N#Cc1cc(-n2nc(C(F)(F)Oc3ccc(Cl)cc3)c(-c3cc(Cl)cc(C(F)(F)F)c3)c2N)ccc1-n1cncn1 [I-A-Q1-071]	I-A-Q1-071: log P (HCOOH): 4.84
Cc1ccccc1-c1c(C(F)(F)F)nn(-c2ccc(-n3cncn3)c(C#N)c2)c1N [I-A-Q1-039]	I-A-Q1-039: log P (HCOOH): 2.89
N#Cc1cc(-n2nc(C(F)(F)F)c(-c3ccc(F)c(Cl)c3)c2N)ccc1-n1cncn1 [I-A-Q1-036]	I-A-Q1-036: log P (HCOOH): 3.24
N#Cc1cc(-n2nc(C(F)(F)F)c(-c3cc(Cl)cc(Cl)c3)c2N)ccc1-n1ccnc1C#N [I-A-Q1-077]	I-A-Q1-077: log P (HCOOH): 4.05
CCc1nn(-c2ccc(-n3cncn3)c(C#N)c2)c(N)c1-c1ccc(Cl)cc1 [I-A-Q1-062]	I-A-Q1-062: log P (HCOOH): 3.09
N#Cc1cc(-n2nc(C(F)(F)F)c(-c3cc(C(F)(F)F)cc(C(F)(F)F)c3)c2N)ccc1-n1cncn1 [I-A-Q1-027]	I-A-Q1-027: log P (HCOOH): 4.07
Cc1cc(C)cc(-c2c(C(F)(F)F)nn(-c3ccc(-n4cncn4)c(C#N)c3)c2N)c1 [I-A-Q1-038]	I-A-Q1-038: log P (HCOOH): 3.33
N#Cc1cc(-n2nc(C(F)(F)F)c(-c3cc(F)c(F)c(F)c3)c2N)ccc1-n1cncn1 [I-A-Q1-041]	I-A-Q1-041: log P (HCOOH): 3.19
